Source: US20130101986A1, “In Vitro Method for obtaining Intrahepatic Fibroblasts Infected with Hepatitis C Virus” (priority 2009, published 2013)

Tested on: HCV-JFH1
Assay: Test of neutralization by interferon alfa of infection of human intrahepatic fibroblasts with HCV-JFH1
Type: cell-based, hepatitis C virus
Details: human intrahepatic fibroblasts preincubated 1 h at 37° C. with 500 U/ml of interferon alfa, infected at 0.1 FFU per cell; FIG. 8
Experimental: The intrahepatic fibroblasts were infected one day after being put in culture with HCV-JFH1 to a multiplicity of infection of 0.1 FFU per cell. After incubation overnight at 37° C., the cellular monolayers were washed three times with phosphate-buffered saline and then grown in standard conditions (Aoudjehane et al., Lab. Invest., 88: 973-985, 2008) in DMEM medium (Gibco) 10% FCS in the presence of penicillin and streptomycin (1%) as well as pyruvate (1%).
In order to determine whether the HCV genome is capable of replicating in intrahepatic fibroblasts inoculated with HCV-JFH1, the strands of positive RNA (genomic RNA) and the strands of negative RNA (antisense RNA) were quantified. For this purpose, the cells were taken on D3, D6 and D9 post-infection, washed in PBS buffer, then prepared using the “RNeasy minikit” extraction kit (QIAGEN S.A, Courtaboeuf, France) according to the supplier's recommendations, the cells having been lysed in 300 μl of buffer for 3.10^5 cells. The intracellular RNAs were quantified by quantitative RT-PCR specific to each strand as described by Carriere et al. (J. Med. Virol., 79: 155-160, 2007). […]

interferon alfa
amount of negative-strand HCV RNA: decrease | amount of positive-strand HCV RNA: decrease
